1 compound from patent publication US11952582B2, “Herbicide-resistance gene and application thereof in plant breeding” (priority 2017, dated 2024) can be followed below.

Entries after “also recorded” stand apart in the source; their conditions may differ.

The subject of experiment [1] is Arabidopsis WT, OE At, OE Pa, OE M3 potted plants. The experiment in a line: Herbicide resistance of Arabidopsis at pot level (spray). It is filed as in vivo, Arabidopsis thaliana. Here is the method: 2 week-old Arabidopsis seedlings of WT, OE At, OE Pa, and OE M3 were transplanted into soil-filled pots (12 seedlings per pot) and growth in a phytotron (22° C., 14 h light/10 h dark, 120 μmol m^−2 s^−1 light intensity) for 4 weeks. Then, 5 μM mesotrione solution (prepared with 0.05% Tween-20) were sprayed twice with a treatment interval of 3 days, and compared with the control treatment (0.05% Tween-20 without herbicide). The spray treatment was biologically repeated 3 times. Two weeks after the first herbicide spray, the test results were photographed.

The subject of experiment [2] is WT (William 82), OE GmHPPD and OE PaHPPD-SDM T1 soybean plants. The experiment in a line: Chlorophyll content and plant height of T1 generation soybean after whole plant spraying. To be noted: 20 μM sprayed twice, 2 weeks. It is filed as in vivo. As to the method:
Wild type soybean William 82, T1 generation OE PaHPPD-SDM soybean and T1 generation OE GmHPPD soybean seedlings were sprayed with 20 μM mesotrione (prepared with 0.1% Tween-20) and 0.1% Tween-20 for twice, respectively. The interval between two sprays is 1 week. Two weeks after spray treatment, the total chlorophyll of the leaves was extracted and the content was determined by referring to the method of Lichtenthaler HK (1987). All experiments were repeated biologically 3 times, and the average value was taken.

Experiment [3] deals with WT and T0 OE SDM rice seedlings. Put plainly: Total chlorophyll content in rice leaves. It is filed as in vivo. To be noted: 200 μM. As to the method: Referring to the method of Lichtenthaler HK (1987), chlorophyll was extracted from the leaves of wild-type and T0 generation OE SDM rice seedlings which were sprayed with 200 μM mesotrione (prepared with 0.1% Tween-20) and sprayed with control 0.1% Tween-20 after 2 weeks and its content was determined. All experiments were repeated biologically 3 times, and the average value was taken.

Experiment [4] deals with HPPD, VTE1 and VTE3 gene expression in Arabidopsis seedlings. Put plainly: qRT-PCR of HPPD and vitamin E biosynthesis genes in Arabidopsis after herbicide treatment. The format is in vivo, Arabidopsis thaliana. To be noted: 250 nM, 6 h. Here is the method: 2 week-old T3 generation seedlings of WT, OE At, OE Pa and OE M3 were used as materials to set up a treatment group and a control group, respectively, wherein the treatment group was continuously cultured in ½ MS liquid medium containing 250 nM mesotrione for 6 h. The total RNA of related materials was extracted using Super Fast Plant RNA Extraction Kit (Beijing Huayueyang Biological Technology Co., Ltd., China). The concentration of RNA samples was measured using NanoDrop ND1000 (Thermo Scientific, USA). RNA samples with an absorbance ratio (at wavelengths of 260/280 nm and 260/230 nm) of approximately 2.0 were selected. The total RNA (1,000 ng) was then used for synthesis of cDNA for reverse transcription using a cDNA synthesis kit (One-step Removal of Transcript gDNA and cDNA Synthesis Super Kit, TransGen).
As for quantitative reverse transcription PCR analysis, 3.0 μL cDNA was used as a template in a 20 μL reaction system to detect the expression levels of HPPD as well as VTE1 and VTE3 genes which encode the key enzymes in the biosynthesis of vitamin E, and actin was used as an internal reference gene. Three technical repetitions were performed on the Bio-Rad CFX96 real-time system. REST software was used for statistical analysis.

Experiment [5] deals with WT and T0 OE SDM rice leaves. The experiment in a line: Oxidative stress indexes of rice leaves (NBT, DAB staining). It is filed as in vivo. To be noted: 1 week; for O2 and H2O2 accumulation in leaves (NBT, DAB): 200 μM. As to the method:
Herbicides cause the production of reactive oxygen species (ROS), leading to cell death. In order to determine the oxidation state of rice, leaves of wild-type and TO-generation OE SDM rice which were sprayed with 200 μM mesotrione (prepared with 0.1% Tween-20) and sprayed with control 0.1% Tween-20 were collected, and stained with nitroblue tetrazolium (NBT) and 3,3-diaminobenzidine (DAB), respectively, to analyze the accumulation of superoxide (O2^−) and hydrogen peroxide (H2O2).
At the end of the herbicide treatment, leaves of 4 week-old rice (normal growth for 3 weeks and herbicide spray treatment for 1 week) were placed in a 3.5 mg mL^−1 nitroblue tetrazolium (N6876, Sigma-Aldrich) staining solution (potassium phosphate buffer containing 10 mM NaN3), soaked in vacuum, and shaked on a shaker overnight. The NBT-stained plants were destained with a mixed solution of acetic acid:glycerol:ethanol=1:1:3 (v/v/v) at 100° C. for 5 min, and then reserved in a mixed solution of glycerol:ethanol=1:4 (v/v).
Rice seedling leaves were soaked in DAB staining solution for 2 min under vacuum, and then placed in a shaker for 7-8 h. The DAB-stained plants were destained with a mixed solution of acetic acid:glycerol:ethanol=1:1:3 (v/v/v) at 100° C. for 5 min, and then reserved in a mixed solution of glycerol:ethanol=1:4 (v/v).

Experiment [6] concerns Arabidopsis WT, OE At, OE Pa, OE M3 seedlings. The experiment in a line: Herbicide resistance after Arabidopsis germination (seedlings transferred to herbicide medium). It is filed as in vivo, Arabidopsis thaliana. Here is the method: In order to further confirm the correctness of the results obtained in the germination test, an analysis experiment on herbicide resistance after Arabidopsis germination was conducted. Arabidopsis seedlings germinated by OE At, OE Pa, OE M3 and WT for 7 days were transferred to ½ MS medium containing different concentrations (0, 100, 250, 500, and 1000 nM) of mesotrione and grown for 1 week. 5 seedlings were treated per genotype with 3 biological replicates. After 1 week, the effect of the herbicide treatment (i.e., albino) was photographed.

In the case of `CS(=O)(=O)c1ccc(C(=O)C2C(=O)CCCC2=O)c([N+](=O)[O-])c1` [mesotrione], the “maximum tolerance concentration under potted conditions” value in experiment [1] (Arabidopsis overexpressing PaHPPD-M3, sprayed on fully expanded leaves) worked out at 5 µM. In experiment [1] (OE M3 line, 5 μM sprayed twice, 2 weeks after first spray), the phenotype result is “grows well”. The “phenotype of new leaves of seedlings” value in experiment [1] (WT, OE At and OE Pa lines, 5 μM sprayed twice, 2 weeks after first spray) is “completely albino”. For the same compound, in experiment [2], the “contents of chlorophyll a and chlorophyll b (and plant height) of treated OE PaHPPD-SDM compared with treated OE GmHPPD and wild type” value is “significant higher”; the “order of plant height of treated lines” value is on record as “OE PaHPPD-SDM>OE GmHPPD>wild-type soybean William 82”. The “contents of chlorophyll a and chlorophyll b in leaves (and plant height) compared with control treatment” value in experiment [2] (OE GmHPPD and wild-type William 82) is on record as “significantly lower”. Further, the “contents of chlorophyll a and chlorophyll b in leaves (and plant height) compared with control” value in experiment [2] (OE PaHPPD-SDM) is given as “reduced; also recorded: slightly reduced”. Further, in experiment [2] (all lines), the “plant height of treated soybean compared with control” value is “lower”. Moreover, in experiment [3] (OE PaHPPD-SDM rice), the “chlorophyll content of leaves after treatment” value was “did not decrease significantly”. Moreover, the “total chlorophyll content in leaves compared with treated OE SDM rice” value in experiment [3] (WT rice, 2 weeks) is “greatly reduced”. Further, the “expression levels of HPPD, VTE1 and VTE3 compared with untreated seedlings” value in experiment [4] (OE At, OE Pa and WT lines) was “inhibited to varying degrees”. In experiment [4] (OE M3 line), the “HPPD gene expression level compared with untreated seedlings” value was “basically not inhibited”; the “gene expression levels of VTE1 and VTE3 compared with untreated seedlings” value is reported as “up-regulated”. For the same compound, the “contents of superoxide, H2O2 and MDA in WT rice leaves compared with OE SDM rice leaves” value in experiment [5] (200 μM spray) is “significantly higher”. In experiment [5] (OE SDM rice), the “O2 and H2O2 accumulation in leaves (NBT, DAB)” value is recorded as “little”. The “O2 and H2O2 accumulation in leaves (NBT, DAB)” value in experiment [5] (WT rice) was “large number”. Besides, the cotyledon phenotype entry in experiment [6] (OE At and OE Pa, 250 nM, 1 week) is “albino”. In experiment [6] (OE M3, 7-day seedlings, 1 week on 1/2 MS medium), the “concentration at which seedlings grew well (maximum tolerance concentration of seedlings)” value is 250 nM. Besides, in experiment [6] (WT, 7-day seedlings, 1 week on 1/2 MS medium), the “concentration at which cotyledons were albino” value was 100 nM.
